According to PMC7914648 (Pharmaceuticals, 2021):

Columns and labels:
[1] = fresh mouse blood, withdrawn from the jugular vein and heparinized; settings: C57BL mice, 37 °C, up to 4 h
[2] = system: SHSY-5Y cells; experiment: MTS cell viability assay; format: cell-based
Description: SHSY-5Y cells (kindly provided by I. Szabò) were grown in Dulbecco’s Modified Eagle Medium (DMEM, Aurogene) supplemented with 10% (v/v) fetal bovine serum (FBS), 100 U/mL penicillin G, 0.1 mg/mL streptomycin and 5% glutamine.
SHSY-5Y cells were seeded (10,000 cells/well) in standard 96-well plates in DMEM (200 µL). After 24 h, the growth medium was replaced with a medium containing PAPTP and PAPTPL (from a stock solution in DMSO) at the desired final concentrations (20, 10 and 3 μM). DMEM without additions (CONTROL in Figure 2) was used as negative control. The final concentration of DMSO was 0.1% or lower in all cases (including control). After incubation for 24 h, 20 µL of CellTiter 96 AQUEOUS One solution (Promega, Italy) were added to each well and the plate was incubated at 37 °C in a humidified, 5% CO2 atmosphere for 4 h. Absorbance was measured at 490 nm to detect formazan formation.

[3] = Tissue distribution of An2-PAPTP and metabolites (liver, spleen, kidneys, heart) after i.v. injection; format: in vivo, mouse; settings: mean ± SEM; for metabolite in liver, 15 min: n = 5; for metabolite in heart, 15 min / metabolite in kidneys, 15 min / metabolite in spleen, 15 min: N = 5
Source text: The total amount of An2-PAPTP and its metabolites, summarized in Table 3, is comprehensive of all the species having the characteristic psoralenic UV spectrum obtained by the overall extraction procedure (i.e., from organic solvent extraction and basic hydrolysis of the remaining pellet), and represents and underestimation of the real concentration in the tissue (see Section 4.7.3). This is because no recovery yield correction was applied, since it was impossible to identify most of the species extracted, and because PAPTPL extracted after high-pH hydrolysis of the pellet could come either from An2-PAPTP or from metabolites. For quantification in HPLC analysis, all the psoralenic species were assumed to have the same molar extinction coefficient as PAPTPL, an assumption justified by the near-identity observed for all the available psoralen-containing molecules.
(§1) The liver, spleen, kidneys, heart obtained from untreated mice were weighed and homogenized with PBS pH 7.4 (1 vol) with a potter. The pre-established amount of PAPTPL was added into tissue homogenates or blood and, after thorough vortexing, 5 vol of acetone were added and the sample was sonicated for 2 min. Subsequently, 5 vol of ACN containing 0.1% TFA were added and the sample was sonicated for 5 min. The sample was then centrifuged at 12,000× g for 7 min at 4 °C and the supernatant was collected, concentrated with a Hetovac VR-1, and analyzed via HPLC-UV.
as §1, with “Brain and liver” for “The liver, spleen, kidneys, heart”, “analyte” for “PAPTPL”, “homogenates” for “homogenates or blood”, “trifluoracetic acid (TFA)” for “TFA”
To quantify the amount of An2-PAPTP stuck in the tissue, the pellet remaining after the procedure described above was incubated with intermittent Vortexing at 60 °C for 3 h with PBS pH 12.5/ACN 1:1 and then centrifuged at 12,000× g for 7 min. HPLC-UV analysis of the supernatant, measuring PAPTPL hydrolyzed from the tissue, thus indirectly reflects the amount of An2-PAPTPL in the pellet (Scheme 3). Quantification was as described for PAPTPL.
A stock solution of the peptide-PAPTP conjugates was prepared in DMSO. TAT-PAPTP was administered at 8 and 5 μmol/kg bw and An2-PAPTP only at 5 μmol/kg bw. The calculated quantity of drugs was diluted from the stock solution in saline or mouse plasma to a final volume of 200 μL.

[4] = Preliminary brain levels after intraperitoneal An2-PAPTP; format: in vivo, mouse; settings: An2-PAPTP 5 µmol/kg bw i.p. in DMSO; sacrifice at 20 min or 1, 2, 4 h; four mice
Description: In preliminary tests An2-PAPTP was administered at 5 µmol/kg bw by the intraperitoneal (i.p.) route, using dimethylsulfoxide (DMSO) as the vehicle. […] Many brain-penetrating peptides bind to biomolecules such as proteins and cell structures such as membranes. Furthermore, the absence of a flowing bloodstream at the injection site may cause a poorly soluble molecule to remain confined in the vicinity of the point of delivery. […] Collectively, these preliminary results led to the adoption of the intravenous route. An2-PAPTP (5 µmoles/kg bw, in plasma) was thus administered by tail vein injection to mice.

[5] = set-up: method as in 4 sources, ref 50, 59 = [50]; PMID 12697897; doi:10.1073/pnas.0931245100; 50. Smith R.A.J. Porteous C.M. Gane A.M. Murphy M.P. Delivery of bioactive molecules to mitochondria in vivo Proc. Natl. Acad. Sci. USA 2003 100 5407 5412 10.1073/pnas.0931245100 12697897 PMC154358 || [59]; PMID 23454352; doi:10.1016/j.bbagen.2013.02.005; 59. Porteous C.M. Menon D.K. Aigbirhio F.I. Smith R.A. Murphy M.P. P-glycoprotein (Mdr1a/1b) and breast cancer resistance protein (Bcrp) decrease the uptake of hydrophobic alkyl triphenylphosphonium c ||| ref 59 = [59]; PMID 23454352; doi:10.1016/j.bbagen.2013.02.005; 59. Porteous C.M. Menon D.K. Aigbirhio F.I. Smith R.A. Murphy M.P. P-glycoprotein (Mdr1a/1b) and breast cancer resistance protein (Bcrp) decrease the uptake of hydrophobic alkyl triphenylphosphonium c ||| ref 50 = [50]; PMID 12697897; doi:10.1073/pnas.0931245100; 50. Smith R.A.J. Porteous C.M. Gane A.M. Murphy M.P. Delivery of bioactive molecules to mitochondria in vivo Proc. Natl. Acad. Sci. USA 2003 100 5407 5412 10.1073/pnas.0931245100 12697897 PMC154358 ||| ref 60 = [60]; PMID 31751762; doi:10.1016/j.freeradbiomed.2019.11.021; 60. Pinho B.R. Duarte A.I. Canas P.M. Moreira P.I. Murphy M.P. Oliveira J.M.A. The interplay between redox signalling and proteostasis in neurodegeneration: In vivo effects of a mitochondria-targeted; settings: cited from earlier work
Source text: TPP-driven mitochondriotropic compounds are not necessarily excluded from the brain [47, 48, 49, 50]. The literature contains several reports of the use of mitochondria-targeted probes to report on cerebral processes or of mitochondria-tar ...

[6] = after An2-PAPTP 5 µmoles/kg bw i.v.

HN-IGRKKRRQRRRPPQG-OH
cleaved bond [1]: hydrolysis of the carbamate bond connecting the peptide and PAPTPL

O=C([O-])C(F)(F)F.O=c1ccc2c(OCCCCOc3ccc(CCC[P+](c4ccccc4)(c4ccccc4)c4ccc(OCCCc5ccc(O)cc5)cc4)cc3)c3ccoc3cc2o1 [PAPTPL, (4-(3-(4-hydroxyphenyl)propoxy)phenyl)(3-(4-(4-((7-oxo-7H-furo[3,2-g]chromen-4-yl)oxy)butoxy)phenyl)propyl)diphenylphosphonium 2,2,2-trifluoroacetate]
difference in cytotoxic effect versus PAPTP ([2]; 24 h, MTS, one-way ANOVA): no statistically significant difference
cytotoxic effect (cell viability, MTS reduction assay) ([2]; 24 h treatment, 20, 10 and 3 μM, absorbance 490 nm, n = 3): marked cytotoxicity
metabolite in liver, 15 min ([3]; after An2-PAPTP 5 µmoles/kg bw i.v. in mouse plasma, HPLC-UV): 1.5 ± 0.6 nmol/g fresh tissue
metabolite in heart, 15 min [3, 6]: 0.12 ± 0.06 nmol/g fresh tissue
metabolite in kidneys, 15 min [3, 6]: 0.7 ± 0.1 nmol/g fresh tissue
metabolite in liver, 15 min [3, 6]: 1.2 ± 0.5 % administered dose
metabolite in spleen, 15 min [3, 6]: 0.9 ± 0.2 nmol/g fresh tissue
metabolite in heart, 15 min ([3]; after An2-PAPTP i.v.): 0.013 ± 0.007 % administered dose
metabolite in kidneys, 15 min ([3]; after An2-PAPTP i.v.): 0.1 ± 0.1 % administered dose
metabolite in spleen, 15 min ([3]; after An2-PAPTP i.v.): 0.05 ± 0.02 % administered dose
detection in brain after i.p. administration [4]: no An2-PAPTP or PAPTPL could be detected

COC1=C(OC)C(=O)C(CCCCCCCCCC[P+](c2ccccc2)(c2ccccc2)c2ccccc2)=C(C)C1=O [MitoQ]
amount in the brain, R6/2 mice ([5]; 500 µM MitoQ in drinking water for 6 weeks, R6/2 mice): ~5 pmol/g
amount in the brain, WT mice ([5]; 500 µM MitoQ in drinking water for 6 weeks, WT mice): about 1 pmol/g
steady-state brain radioactivity levels ([5]; 10-day administration of 500 µM in drinking water): ~0.15 nmol/gr fresh tissue
initial peak concentration in brain tissue ([5]; i.v. injection of 100 nmol radiolabelled compound in (WT) mice, scintillation counting): about 0.05 nmol/gr
Area Under Curve in brain ([5]; i.v., wild-type mice): 0.6 nmol·h/g wet weight
